Literature values, collected in patent publication US20250041332A1, “SYSTEMIC INJECTION OF SUPERHEATED PERFLUOROCARBON EMULSION TO IMPROVE VENTILATION AND REDUCE VENTILATOR-INDUCED LUNG INJURY” (THE BOARD OF REGENTS OF THE UNIVERSITY OF TEXAS SYSTEM, priority 2021, published 2025).
Like-named read-outs stand apart in the source and are kept apart here. Values belong to the compound of their own block, whether it stands above or below them.

What was measured:
[1] = intravenous

- Time in which half the dose is recovered from the exhaled gas [1]: 3 to 12 days
Structure (SMILES): FC(F)(F)C(F)(F)C(F)(F)C(F)(F)C(F)(F)C(F)(F)C(F)(F)C(F)(F)Br [PFOB, perfluorooctyl bromide]

- Vapor pressure (at 25° C.): about 330.3 kPa
- Vapor pressure (temperature not given): approximately 330 kPa
Structure (SMILES): FC(F)(F)C(F)(F)C(F)(F)C(F)(F)F [perfluorobutane]

- Vapor pressure (at 25° C.): about 83.99 kPa
Structure (SMILES): FC(F)(F)C(F)(F)C(F)(F)C(F)(F)C(F)(F)F [perfluoropentane]

- Vapor pressure (at 21.1° C.): about 792 kPa
Structure (SMILES): FC(F)(F)C(F)(F)C(F)(F)F [perfluoropropane]
